In patent publication US5155099A, “Alkylphosphonoserines and pharmaceutical compositions useful as cytostatic agents” (Hafslund Nycomed Pharma Aktiengesellschaft, priority 1988, dated 1992):

Test system: Ehrlich ascites tumor cells
Assay: Concentration-dependent inhibition of growth of Ehrlich ascites tumor cells (antiproliferative action)
Type: cell-based
Text: The novel alkylphosphonoserines have a strong cytostatic and virustatic action. In order to determine the cytostatic action, the antiproliferative action was investigated in Ehrlich ascites tumor cells. It can be seen here that the compounds according to the invention have excellent cytostatic action. They can therefore be employed as cytostatics or virustatics, alone or in a mixture with other active substances, in the form of customary pharmaceutical preparations.
Concentration-dependent Inhibition of Growth of Ehrlich Ascites Tumor Cells

`CCCCCCCCCCCCCCCCP(=O)(O)OC[C@H](N)C(=O)O` [n-Hexadecyl phosphono-L-serine, n-Hexadecylphosphono-L-serine] gave an inhibition at 100 µM (Concentration 1 × 10^-4 M) of 89%, an inhibition at 10 µM (Concentration 1 × 10^-5 M) of 13% and an inhibition at 30 µM (Concentration 3 × 10^-5 M) of 45%. For the same molecule, the inhibition at 3 µM (Concentration 3 × 10^-6 M) was 9%.
